From PMC9993459, “A novel selective spleen tyrosine kinase inhibitor SKI-O-703 (cevidoplenib) ameliorates lupus nephritis and serum-induced arthritis in murine models” (Clinical and Experimental Immunology, 2022)

How the values were obtained:
[1] = target: T1, phosphorylation of Syk in mouse primary B cells (Mus musculus, UniProt P48025); test: p-Syk by FACS in stimulated mouse primary B cells; assay type: cell-based; details: BCR and CD40 stimulation
T1 construct: endogenous in cells; host or cells: mouse primary B cells (splenic CD19+ B cells of C57BL/6 mice)
Description: Figure 1: in vitro inhibitory effects of SKI-O-592 and -703 on Syk in B cells and monocytes. Ramos cells (A), human primary monocytes (B), and THP cells (C) were pretreated with inhibitors at the indicated concentrations and stimulated with anti-human IgM (A) and human IgG (B and C). The cells were then lysed and assayed by immunoblotting methods. The relative intensities of protein phosphorylation levels were quantitated with reference to each lane of β-actin control bands. (D) Ramos cells, human primary monocytes, and THP cells were treated as in A–C for 24 h and levels of phosphorylated Syk (p-Syk) were measured by ELISA. (E) Mouse primary B cells were stimulated with anti-IgM mAb for 60 min in the presence or absence of SKI-O-703 and assayed for p-Syk by FACS. A representative FACS profile and data on the dose-response of mean fluorescence intensity (MFI) are shown. The data are representative of two independent experiments.

NZB/W F1 mice = test: NZB/W mouse model of SLE / lupus nephritis, oral dosing; assay type: in vivo
Description: NZB/W female mice aged 18 weeks were assigned to four groups by distributing mice by body weight and anti-dsDNA IgG titer equivalently across the groups. Each group of mice was administered orally with 42 mg per kg body weight (mpk) of SKI-O-703 dissolved in 50 mM citric acid, 84 mpk of SKI-O-703, 30 mpk of tofacitinib (Selleckchem) dissolved in 0.5% carboxymethyl cellulose (Sigma Aldrich) containing 0.025% Tween 20, or a mixture of the two vehicles. The drugs were given once daily up to 34 weeks of age. Body weight was measured every 2 weeks and serum was collected every 4 weeks. At the termination of the experiments (34 weeks of age), serum, urine, spleen, BM, and kidneys were removed post mortem and assayed by histopathological and biochemical methods as below. Levels of blood urea nitrogen (BUN) and creatinine were measured by Knotus (Incheon, Korea).
Kidneys removed from the NZB/W mice were fixed in 4% paraformaldehyde, embedded in paraffin, sectioned at 3 μm thickness, and stained with periodic acid-Schiff (PAS) and hematoxylin (Sigma Aldrich). […] Glomerular size was measured using Image J software. To assess the glomerular size and hypercellularity of each mouse, more than 20 glomeruli per mouse were individually examined and averaged.
Kidneys and spleens of NZB/W mice were embedded in OCT compound (Sakura Finetek, Torrance, CA, USA) and snap-frozen in liquid nitrogen. Frozen sections were fixed in acetone and blocked with 10% normal donkey serum (Sigma Aldrich). Kidney sections were stained with a 1:200 dilution of anti-IgG-biotin (Sigma Aldrich), anti-IgM-biotin (Southern Biotech) and anti-C3-biotin (Bioss), followed by reaction with 1:200-dilution of streptavidin-cy3 (Invitrogen). Spleen sections were stained with anti-GL7-FITC, anti-CD4-APC, and anti-IgD-PE (all from BD Biosciences or eBioscience). Fluorescence images were acquired using a TCS SP5 confocal microscope (Leica). The area of GCs composed with GL7^+ cells per image was calculated using ImageJ software (NIH, Bethesda, MD, USA).
Titers of anti-dsDNA IgG Ab were measured by ELISA, as described previously. In brief, sera were diluted 1/10 000 to 1/50 000 in PBS and applied to immunosorbent plates (Nunc) precoated with 5 μg/ml poly-L-lysine and 5 μg/ml thymic DNA (Sigma Aldrich). The serum containing the highest titer of anti-dsDNA IgG was serially diluted and used as standard. The plates were incubated with anti-mouse IgG-biotin (Sigma Aldrich) and streptavidin-HRP (BD Biosciences). The concentration of albumin in urine was measured by quantitative ELISA using a mouse albumin ELISA kit (Bethyl), according to the manufacturer’s instructions. The concentration of serum B-cell activating factor of the TNF family (BAFF) was quantitated using a BAFF/BLys/TNFSF13B ELISA Kit (R&D Systems).
Single-cell suspensions of spleen and LN cells were prepared as previously described. Joint tissues from hind paws of KSTA mice were dissected free of soft tissue and bones, digested with 100 μg/ml Liberase (Roche) for 45 min at 37 °C, and filtered through a 70-μm-pore cell strainer (SPL Life Sciences) to prepare single cell suspensions of synovial infiltrates. The single cell suspensions were stained with an appropriate combination of mAbs and analyzed by FACS. The mAbs used were: CD138-PE, B220-PerCP or -APC-cy7, FAS-PE, CD19-PerCP or -APC, CD21-FITC or -APC, CD43-APC, CD23-PE-cy7, CD8a-PE, CD25-APC-cy7, CXCR5-biotin, GL7-FITC, CD45.2-FITC, CD27-FITC, Ki-67-FITC, Gr-1-FITC, CD4-FITC or -APC-cy7, phospho-Syk-PE, CD11b-PE or -PerCP, PD-1-APC, CD44-APC-cy7, and F4/80-PerCP mAbs (all from BD Biosciences, eBioscience or Biolegend). Streptavidin-PerCP was purchased from BD Biosciences.
Splenic CD19^+ B cells from NZB/W mice were sorted by MACS, and lysed with Trizol reagent (Invitrogen) followed by standard methods of total RNA purification. The RNA was assayed by RT and quantitative PCR as described. […]

Syk = Syk (Homo sapiens, UniProt P43405); test: Kinase assay (LANCE Ultra TR-FRET), Syk; assay type: biochemical
Description: Kinase assays were conducted in 384-well plates using LANCE ultra 66 time-resolved fluorescence resonance energy transfer (TR-FRET) methods, according to the manufacturer’s instructions (Perkin-Elmer). In brief, each kinase was pre-incubated with a serially diluted compound for 30 min, incubated with ULight poly-GT peptide substrate and ATP for up to 1 h. Thirty minutes after adding Eu-labeled anti-phosphopeptides Ab diluted in LANCE Detection Buffer, LANCE signals were measured with an EnVision multilabel reader (Perkin-Elmer).

[2] = 84 mpk oral once daily, 18-34 weeks of age
[3] = high dose (84 mpk), 34 weeks, FACS

T1 sequence (P48025 whole entry): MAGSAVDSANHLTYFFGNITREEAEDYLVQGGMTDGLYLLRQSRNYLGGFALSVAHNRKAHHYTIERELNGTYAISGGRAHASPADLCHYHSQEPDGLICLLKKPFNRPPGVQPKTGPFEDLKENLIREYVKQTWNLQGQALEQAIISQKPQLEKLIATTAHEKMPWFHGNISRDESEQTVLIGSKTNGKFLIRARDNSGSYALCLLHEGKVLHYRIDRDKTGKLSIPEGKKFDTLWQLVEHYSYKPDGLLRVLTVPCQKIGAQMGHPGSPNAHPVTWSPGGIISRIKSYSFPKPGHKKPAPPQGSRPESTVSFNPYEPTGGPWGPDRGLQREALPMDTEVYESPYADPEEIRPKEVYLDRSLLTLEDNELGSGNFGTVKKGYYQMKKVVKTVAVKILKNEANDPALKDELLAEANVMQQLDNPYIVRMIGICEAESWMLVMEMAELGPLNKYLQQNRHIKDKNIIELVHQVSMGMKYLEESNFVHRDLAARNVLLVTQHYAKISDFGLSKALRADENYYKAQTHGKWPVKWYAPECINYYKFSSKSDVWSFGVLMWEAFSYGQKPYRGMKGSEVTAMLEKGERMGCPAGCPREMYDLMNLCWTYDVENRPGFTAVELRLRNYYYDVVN

SMILES | Phosphorylation of Syk in mouse primary B cells [1] | Concentrations of BUN and creatinine (NZB/W F1 mice; 42 mpk (low-dose), 34 weeks of age) | Rise of serum anti-dsDNA IgG Ab level (NZB/W F1 mice; 42 mpk oral once daily) | Glomerular IgM and C3 staining intensities (NZB/W F1 mice; 84 mpk (high dose)) | Concentrations of BUN and creatinine (NZB/W F1 mice; 84 mpk (high-dose), 34 weeks of age) | Body weights (NZB/W F1 mice; [2]) | Spleen weights (NZB/W F1 mice; [2]) | Rise of serum anti-dsDNA IgG Ab level (NZB/W F1 mice; 84 mpk oral once daily, P < 0.01 by two-way ANOVA) | Concentration of urinary albumin (NZB/W F1 mice; 84 mpk, 34 weeks of age, vehicle mean 742.9 mg/dl) | Number of splenic T cells (NZB/W F1 mice; [3]) | Total spleen cells (NZB/W F1 mice; [3]) | CXCR5+PD-1+ Tfh cells (NZB/W F1 mice; high dose (84 mpk), spleen) | Splenic follicular, GC B cells and plasma cells (NZB/W F1 mice; high dose (84 mpk), vs vehicle controls) | Level of serum BAFF (NZB/W F1 mice; high dose, ELISA) | BAFF receptor expression in splenic B cells (NZB/W F1 mice; high dose, quantitative RT-PCR) | BM hematopoiesis (NZB/W F1 mice; long-term treatment (16 weeks)) | Ratio to Syk (Syk) (Syk; IC50 ratio to Syk) | IC50 against all other kinases tested relative to Syk (Syk; fold higher than against Syk) | IC50 (Syk; kinase activity, TR-FRET) | Potency as Syk kinase inhibitor relative to R406 (Syk; more potent than R406)
CS(=O)(=O)O.CS(=O)(=O)O.Cc1nn(-c2ccnc(Nc3ccc4c(c3)c(C(=O)C3CC3)cn4C)n2)cc1CN1C[C@H](O)CO1 [SKI-O-703, (S)-cyclopropyl(5-((4-(4-((4-hydroxyisoxazolidin-2-yl)methyl)-3-methyl-1H-pyrazol-1-yl)pyrimidin-2-yl)amino)-1-methyl-1H-indol-3-yl)methanone dimesylate] | reduced the phosphorylation of Syk | significantly lowered | did not have the same effect, and even temporarily elevated the Ab titer | significantly reduced | significantly lowered | without significantly affecting body weights | significantly reduced spleen weights | dramatically attenuated | markedly reduced | not significantly altered | significantly less numerous | reduced in number | significantly less numerous | also reduced | reduced level | appeared not to interfere with BM hematopoiesis |  |  |  | 
Cc1nn(-c2ccnc(Nc3ccc4c(c3)c(C(=O)C3CC3)cn4C)n2)cc1CN1C[C@H](O)CO1 [SKI-O-592] |  |  |  |  |  |  |  |  |  |  |  |  |  |  |  |  | 1.0 | 67- to 2753 fold | 6.2 nM | approximately 9 fold
